Source: patent publication US20240245079A1, “METHOD FOR MANUFACTURING HEATED FOOD” (Nisshin Seifun Welna Inc., priority 2021, published 2024)

Assay: Method for measuring solubility of metal salt
Details: 100 g water at pH 7, 20° C., shaken 1 hour
Experimental: In a flask are placed 100 g of water at pH 7 and 2 g of a metal salt being tested. The flask is tightly closed and shaken in a thermostat at 20° C. for 1 hour. The contents of the flask are filtered to collect the undissolved metal salt, which is dried and weighed. The weight (g) of the undissolved metal salt is subtracted from the original weight (2 g) to obtain the solubility of the metal salt.

Compound `[O]=[Mg]` [Magnesium oxide] has a Solubility of 0.0086 g/100 g water.
